Test results: PubChem BioAssay (NCI)
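Interpolation was linear, between the two tested concentrations surrounding the appropriate level; five concentrations were tested over 48 hours in 96-well plates. TGI is the concentration that stops growth completely.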

Key:
Assay in all cases: DTP human tumour cell line panel, 48 h
OVCAR-3 ovarian = test system: OVCAR-3 ovarian
NCI-H522 lung = test system: NCI-H522 lung
NCI-H460 lung = test system: NCI-H460 lung
CCRF-CEM leukemia = test system: CCRF-CEM leukemia
MALME-3M melanoma = test system: MALME-3M melanoma
MOLT-4 leukemia = test system: MOLT-4 leukemia
SN12C renal = test system: SN12C renal
BT-549 breast = test system: BT-549 breast
UO-31 renal = test system: UO-31 renal
HOP-92 NSCLC = test system: HOP-92 NSCLC
HL-60(TB) leukemia = test system: HL-60(TB) leukemia
MDA-N = test system: MDA-N
NCI/ADR-RES ovarian = test system: NCI/ADR-RES ovarian
HCT-116 colon = test system: HCT-116 colon
UACC-257 melanoma = test system: UACC-257 melanoma
K-562 leukemia = test system: K-562 leukemia
SNB-19 CNS = test system: SNB-19 CNS
MDA-MB-231 breast = test system: MDA-MB-231 breast
KM12 colon = test system: KM12 colon
U251 CNS = test system: U251 CNS
IGROV1 ovarian = test system: IGROV1 ovarian
RXF 393 renal = test system: RXF 393 renal
SF-539 CNS = test system: SF-539 CNS
OVCAR-8 ovarian = test system: OVCAR-8 ovarian
EKVX NSCLC = test system: EKVX NSCLC
M14 melanoma = test system: M14 melanoma
SK-MEL-5 melanoma = test system: SK-MEL-5 melanoma
A549 NSCLC = test system: A549 NSCLC
TK-10 renal = test system: TK-10 renal
CAKI-1 renal = test system: CAKI-1 renal
HCC-2998 colon = test system: HCC-2998 colon
PC-3 prostate = test system: PC-3 prostate
HS 578T breast = test system: HS 578T breast
LOX IMVI melanoma = test system: LOX IMVI melanoma
NCI-H23 lung = test system: NCI-H23 lung
MDA-MB-435 = test system: MDA-MB-435
T-47D breast = test system: T-47D breast
COLO 205 colon = test system: COLO 205 colon
SF-295 CNS = test system: SF-295 CNS
HCT-15 colon = test system: HCT-15 colon
NCI-H226 lung = test system: NCI-H226 lung
MCF7 breast = test system: MCF7 breast
SR leukemia = test system: SR leukemia
SW-620 colon = test system: SW-620 colon
SK-MEL-28 melanoma = test system: SK-MEL-28 melanoma
DU-145 prostate = test system: DU-145 prostate
HT29 colon = test system: HT29 colon
OVCAR-5 ovarian = test system: OVCAR-5 ovarian
HOP-62 NSCLC = test system: HOP-62 NSCLC
786-0 renal = test system: 786-0 renal
SK-OV-3 ovarian = test system: SK-OV-3 ovarian
ACHN renal = test system: ACHN renal
A498 renal = test system: A498 renal
OVCAR-4 ovarian = test system: OVCAR-4 ovarian
SK-MEL-2 melanoma = test system: SK-MEL-2 melanoma
RPMI-8226 leukemia = test system: RPMI-8226 leukemia
SF-268 CNS = test system: SF-268 CNS
SNB-78 CNS = test system: SNB-78 CNS
LXFL 529 NSCLC = test system: LXFL 529 NSCLC
DLD-1 colon = test system: DLD-1 colon
DMS 273 small cell lung = test system: DMS 273 small cell lung
SNB-75 CNS = test system: SNB-75 CNS
KM20L2 colon = test system: KM20L2 colon
M19-MEL melanoma = test system: M19-MEL melanoma
UACC-62 melanoma = test system: UACC-62 melanoma

`CNC(=O)Nc1nc2ccc([N+](=O)[O-])cc2[nH]1` gave a TGI (OVCAR-3 ovarian) greater than 100 µM, a TGI (NCI-H522 lung) greater than 100 µM and a TGI (NCI-H460 lung) greater than 100 µM. For the same compound, the TGI (CCRF-CEM leukemia) was greater than 100 µM, the TGI (MALME-3M melanoma) was greater than 100 µM and the TGI (MOLT-4 leukemia) was greater than 100 µM. The TGI (SN12C renal) was greater than 100 µM, the TGI (BT-549 breast) was greater than 100 µM and the TGI (UO-31 renal) was greater than 100 µM. For the same compound, the TGI (HOP-92 NSCLC) was greater than 100 µM, the TGI (HL-60(TB) leukemia) was greater than 100 µM and the TGI (MDA-N) was greater than 100 µM. For the same compound, the TGI (NCI/ADR-RES ovarian) was greater than 100 µM, the TGI (HCT-116 colon) was greater than 100 µM and the TGI (UACC-257 melanoma) was greater than 100 µM. The TGI (K-562 leukemia) was greater than 100 µM, the TGI (SNB-19 CNS) was greater than 100 µM and the TGI (MDA-MB-231 breast) was greater than 100 µM. The TGI (KM12 colon) was greater than 100 µM, the TGI (U251 CNS) was greater than 100 µM and the TGI (IGROV1 ovarian) was greater than 100 µM. It also gave a TGI (RXF 393 renal) greater than 100 µM, a TGI (SF-539 CNS) greater than 100 µM and a TGI (OVCAR-8 ovarian) greater than 100 µM. It also gave a TGI (EKVX NSCLC) greater than 100 µM, a TGI (M14 melanoma) greater than 100 µM and a TGI (SK-MEL-5 melanoma) greater than 100 µM. For the same compound, the TGI (A549 NSCLC) was greater than 100 µM, the TGI (TK-10 renal) was greater than 100 µM and the TGI (CAKI-1 renal) was greater than 100 µM. It also gave a TGI (HCC-2998 colon) greater than 100 µM, a TGI (PC-3 prostate) greater than 100 µM and a TGI (HS 578T breast) greater than 100 µM. For the same compound, the TGI (LOX IMVI melanoma) was greater than 100 µM, the TGI (NCI-H23 lung) was greater than 100 µM and the TGI (MDA-MB-435) was greater than 100 µM. For the same compound, the TGI (T-47D breast) was greater than 100 µM, the TGI (COLO 205 colon) was greater than 100 µM and the TGI (SF-295 CNS) was greater than 100 µM. For the same compound, the TGI (HCT-15 colon) was greater than 100 µM, the TGI (NCI-H226 lung) was greater than 100 µM and the TGI (MCF7 breast) was greater than 100 µM. For the same compound, the TGI (SR leukemia) was greater than 100 µM, the TGI (SW-620 colon) was greater than 100 µM and the TGI (SK-MEL-28 melanoma) was greater than 100 µM. For the same compound, the TGI (DU-145 prostate) was greater than 100 µM, the TGI (HT29 colon) was greater than 100 µM and the TGI (OVCAR-5 ovarian) was greater than 100 µM. For the same compound, the TGI (HOP-62 NSCLC) was greater than 100 µM, the TGI (786-0 renal) was greater than 100 µM and the TGI (SK-OV-3 ovarian) was greater than 100 µM. For the same compound, the TGI (ACHN renal) was greater than 100 µM, the TGI (A498 renal) was greater than 100 µM and the TGI (OVCAR-4 ovarian) was greater than 100 µM. The TGI (SK-MEL-2 melanoma) was greater than 100 µM, the TGI (RPMI-8226 leukemia) was greater than 100 µM and the TGI (SF-268 CNS) was greater than 100 µM.
`CN(Cc1ccccc1)C(=NC#N)N(Cc1ccccc1)Cc1ccccc1` showed a TGI (OVCAR-3 ovarian) of 44.7 µM, a TGI (SNB-78 CNS) of 77.1 µM and a TGI (NCI-H522 lung) of 55.5 µM. The TGI (NCI-H460 lung) was greater than 90.1 µM, the TGI (CCRF-CEM leukemia) was greater than 100 µM and the TGI (MALME-3M melanoma) was 67.1 µM. The TGI (MOLT-4 leukemia) was greater than 100 µM, the TGI (SN12C renal) was greater than 92.9 µM and the TGI (BT-549 breast) was 49.6 µM. The TGI (UO-31 renal) was greater than 84.2 µM, the TGI (HOP-92 NSCLC) was 55.1 µM and the TGI (HL-60(TB) leukemia) was greater than 100 µM. The TGI (MDA-N) was 39.6 µM, the TGI (NCI/ADR-RES ovarian) was 56.1 µM and the TGI (HCT-116 colon) was greater than 55.3 µM. The TGI (UACC-257 melanoma) was 54.4 µM, the TGI (K-562 leukemia) was greater than 100 µM and the TGI (SNB-19 CNS) was greater than 100 µM. The TGI (MDA-MB-231 breast) was 58.7 µM, the TGI (KM12 colon) was 44.4 µM and the TGI (U251 CNS) was 96.9 µM. For the same compound, the TGI (IGROV1 ovarian) was greater than 80.6 µM, the TGI (RXF 393 renal) was 95.9 µM and the TGI (SF-539 CNS) was 39.7 µM. For the same compound, the TGI (OVCAR-8 ovarian) was greater than 100 µM, the TGI (EKVX NSCLC) was greater than 100 µM and the TGI (LXFL 529 NSCLC) was 70.2 µM. It also gave a TGI (M14 melanoma) of 47.7 µM, a TGI (SK-MEL-5 melanoma) of 33.3 µM and a TGI (A549 NSCLC) greater than 100 µM. It also gave a TGI (TK-10 renal) greater than 100 µM, a TGI (CAKI-1 renal) of 58.6 µM and a TGI (HCC-2998 colon) greater than 87.1 µM. It also gave a TGI (PC-3 prostate) of 39.5 µM, a TGI (HS 578T breast) greater than 100 µM and a TGI (DLD-1 colon) greater than 100 µM. It also gave a TGI (LOX IMVI melanoma) of 35 µM, a TGI (DMS 273 small cell lung) of 41.8 µM and a TGI (NCI-H23 lung) of 64 µM. For the same compound, the TGI (MDA-MB-435) was 33.7 µM, the TGI (T-47D breast) was greater than 100 µM and the TGI (COLO 205 colon) was 36.2 µM. For the same compound, the TGI (SF-295 CNS) was 47.4 µM, the TGI (SNB-75 CNS) was 82.2 µM and the TGI (HCT-15 colon) was 71 µM. It also gave a TGI (NCI-H226 lung) of 67.5 µM, a TGI (MCF7 breast) of 93.2 µM and a TGI (SR leukemia) greater than 100 µM. For the same compound, the TGI (KM20L2 colon) was 56.2 µM, the TGI (SW-620 colon) was greater than 100 µM and the TGI (SK-MEL-28 melanoma) was 83.1 µM. It also gave a TGI (DU-145 prostate) greater than 100 µM, a TGI (HT29 colon) of 36.3 µM and a TGI (OVCAR-5 ovarian) of 94.7 µM. It also gave a TGI (HOP-62 NSCLC) of 84.8 µM, a TGI (786-0 renal) of 97.6 µM and a TGI (SK-OV-3 ovarian) greater than 90.3 µM. The TGI (ACHN renal) was 78.3 µM, the TGI (A498 renal) was greater than 100 µM and the TGI (OVCAR-4 ovarian) was greater than 93 µM. It also gave a TGI (SK-MEL-2 melanoma) of 40.7 µM, a TGI (M19-MEL melanoma) of 54.4 µM and a TGI (RPMI-8226 leukemia) of 55.4 µM. The TGI (SF-268 CNS) was greater than 100 µM and the TGI (UACC-62 melanoma) was 55.6 µM.
